IC50 and EC50 data for eleven molecules are collected here from patent US20230391772A1, “METHODS AND COMPOSITIONS FOR TARGETED PROTEIN DEGRADATION” (Ranok Therapeutics (Hangzhou) Co. Ltd., priority 2020, published 2023).

Some results are limits rather than exact numbers.

One test has as its target T1, HSP90a protein (Homo sapiens, UniProt P07900).
T1 construct: purchased BPS Bioscience 50298
Put plainly: HSP90α-binding fluorescent polarization (FP) assay, BODIPY-labeled RNK04010 probe. Particulars: FP competition with RNK04010 (BODIPY-labeled), 5 nM, 300 min at 25° C. The method in brief:
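Compound dilutions (20 μM to 5.2 nM, 2.5-fold) are combined with 5 nM final labeled probe, and HSP90a N-terminal protein is added last. Plates are shaken briefly and held at 25° C for 120 min (FITC-geldanamycin) or 300 min (BODIPY-RNK04010), then FP is measured.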

The test system of test [1] is MIA PaCa-2 human pancreatic carcinoma. Kind of test: MIA PaCa-2 CCK-8 proliferation assay. Type of test: cell-based. Particulars: Homo sapiens, MIA PaCa-2, 72 h, MIA PaCa-2 cells. The method in brief: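 CCK-8 absorbance readout; % inhibition = 100 − (compound − blank)/(DMSO − blank) × 100, blank = medium + DMSO, no cells. Dose range 20 μM down to 1.02 nM, 3-fold steps. KRAS(G12C) copy number: MIA PaCa-2 2; NCI-H358 1; NCI-H23 1.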

The target of a further test is KRAS(G12C) (Homo sapiens, UniProt P01116, G12C). Kind of test: KRAS(G12C)/SOS1 homogeneous time-resolved fluorescence (HTRF) assay. Particulars: absence of GTP, 4° C. for 3 hr, read-out: KRAS (G12C) binding. Further details: purchased Cisbio 63ADK000CB16PEG. The procedure: KRAS(G12C)/SOS1 Homogeneous Time-Resolved Fluorescence (HTRF) Assay
Chain of KRAS(G12C) (P01116 1-188 isoform P01116-2 G12C): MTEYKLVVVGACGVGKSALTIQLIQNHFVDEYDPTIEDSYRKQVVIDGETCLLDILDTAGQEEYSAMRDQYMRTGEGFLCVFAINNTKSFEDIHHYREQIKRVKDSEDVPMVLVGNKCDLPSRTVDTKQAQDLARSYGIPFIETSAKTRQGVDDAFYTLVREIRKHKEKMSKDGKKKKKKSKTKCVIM
Binding of test compounds to KRAS(G12C) protein, which in turn blocks KRAS(G12C) interaction with the SOS1 protein, was measured in the absences of GTP by homogeneous time-resolved fluorescence (HTRF) using the KRAS-G12C/SOS1 Binding Assay Kit (Cisbio, #63ADK000CB16PEG), following the manufacturer's instructions, except as noted. 3-fold serial dilutions of each test compound were prepared ranging from […] to 1.02 nM. The test compound was mixed and incubated with reaction components, incubated in a sealed plate at 4° C. for 3 hr and fluorescence was measured using a PerkinElmer Envision plate reader.
In general terms: Time-resolved FRET reads energy transfer from a long-lived donor to a nearby acceptor.

Turning to `C=CC(=O)N1CCN(c2nc(OC[C@@H]3CN(C(=O)C4CCN(Cc5ccc(-n6c(O)nnc6-c6cc(C(C)C)c(O)cc6O)cc5)CC4)CCN3C)nc3c2CCN(c2cccc4cccc(Cl)c24)C3)C[C@@H]1CC#N` [Compound 202, 2-((S)-1-acryloyl-4-(7-(8-chloronaphthalen-1-yl)-2-(((S)-4-(1-(4-(3-(2,4-dihydroxy-5-isopropylphenyl)-5-hydroxy-4H-1,2,4-triazol-4-yl)benzyl)piperidine-4-carbonyl)-1-methylpiperazin-2-yl)methoxy)-5,6,7,8-tetrahydropyrido[3,4-d]pyrimidin-4-yl)piperazin-2-yl)acetonitrile, trifluoroacetic acid], the IC50 on HSP90a protein is under 100 nM; on KRAS(G12C), 100 to 1000 nM. This molecule also gave an EC50 in test [1] of over 1000 nM.
Regarding `C=CC(=O)N1CCN(c2nc(OC[C@@H]3CN(C(=O)C4CCN(Cc5ccc(-n6c(O)nnc6-c6cc(C)c(O)cc6O)cc5)CC4)CCN3C)nc3c2CCN(c2cccc4cccc(Cl)c24)C3)C[C@@H]1CC#N` [Compound 203, 2-((S)-1-acryloyl-4-(7-(8-chloronaphthalen-1-yl)-2-(((S)-4-(1-(4-(3-(2,4-dihydroxy-5-methylphenyl)-5-hydroxy-4H-1,2,4-triazol-4-yl)benzyl)piperidine-4-carbonyl)-1-methylpiperazin-2-yl)methoxy)-5,6,7,8-tetrahydropyrido[3,4-d]pyrimidin-4-yl)piperazin-2-yl)acetonitrile, trifluoroacetic acid], the figures for the IC50 on HSP90a protein and at KRAS(G12C) were under 100 nM and 100 to 1000 nM, respectively. In test [1], this molecule came in with an EC50 of over 1000 nM.
For `C=CC(=O)N1CCN(c2nc(OC[C@@H]3C[C@@H](NC(=O)C4CCN(Cc5ccc(-n6c(O)nnc6-c6cc(C(C)C)c(O)cc6O)cc5)CC4)CN3C)nc3c2CCN(c2cccc4cccc(Cl)c24)C3)C[C@@H]1CC#N` [Compound 205, N-((3R,5S)-5-(((4-((S)-4-acryloyl-3-(cyanomethyl)piperazin-1-yl)-7-(8-chloronaphthalen-1-yl)-5,6,7,8-tetrahydropyrido[3,4-d]pyrimidin-2-yl)oxy)methyl)-1-methylpyrrolidin-3-yl)-1-(4-(3-(2,4-dihydroxy-5-isopropylphenyl)-5-hydroxy-4H-1,2,4-triazol-4-yl)benzyl)piperidine-4-carboxamide] the same measures were under 100 nM, 100 to 1000 nM and 100 to 1000 nM.
For `C=C(F)C(=O)N1CCN(c2nc(OCCN3CCN(C(=O)C4CCN(Cc5ccc(-n6c(C(=O)NCC(F)(F)F)nnc6-c6cc(C(C)C)c(O)cc6O)cc5)CC4)CC3)nc3c2CCN(c2cccc4cccc(Cl)c24)C3)C[C@@H]1CC#N` [Compound 207, (S)-4-(4-((4-(4-(2-((7-(8-chloronaphthalen-1-yl)-4-(3-(cyanomethyl)-4-(2-fluoroacryloyl)piperazin-1-yl)-5,6,7,8-tetrahydropyrido[3,4-d]pyrimidin-2-yl)oxy)ethyl)piperazine-1-carbonyl)piperidin-1-yl)methyl)phenyl)-5-(2,4-dihydroxy-5-isopropylphenyl)-N-(2,2,2-trifluoroethyl)-4H-1,2,4-triazole-3-carboxamide] the same measures were under 100 nM, 100 to 1000 nM and under 100 nM.
For `CCC(=O)N1CCN(c2nc(OCCN3CCN(C(=O)C4CCN(Cc5ccc(-n6c(C(=O)NCC(F)(F)F)nnc6-c6cc(C(C)C)c(O)cc6O)cc5)CC4)CC3)nc3c2CCN(c2cccc4cccc(Cl)c24)C3)C[C@@H]1CC#N` [Compound 208, (S)-4-(4-((4-(4-(2-((7-(8-chloronaphthalen-1-yl)-4-(3-(cyanomethyl)-4-propionylpiperazin-1-yl)-5,6,7,8-tetrahydropyrido[3,4-d]pyrimidin-2-yl)oxy)ethyl)piperazine-1-carbonyl)piperidin-1-yl)methyl)phenyl)-5-(2,4-dihydroxy-5-isopropylphenyl)-N-(2,2,2-trifluoroethyl)-4H-1,2,4-triazole-3-carboxamide] the same measures were under 100 nM, over 1000 nM and under 100 nM.
In the case of `C=CC(=O)N1CCN(c2nc(OCCN3CCC4(CC3)CCN(C(=O)C3CCN(Cc5ccc(-n6c(C(=O)NCC(F)(F)F)nnc6-c6cc(C(C)C)c(O)cc6O)cc5)CC3)CC4)nc3c2CCN(c2cccc4cccc(Cl)c24)C3)C[C@@H]1CC#N` [Compound 209, (S)-4-(4-((4-(9-(2-((4-(4-acryloyl-3-(cyanomethyl)piperazin-1-yl)-7-(8-chloronaphthalen-1-yl)-5,6,7,8-tetrahydropyrido[3,4-d]pyrimidin-2-yl)oxy)ethyl)-3,9-diazaspiro[5.5]undecane-3-carbonyl)piperidin-1-yl)methyl)phenyl)-5-(2,4-dihydroxy-5-isopropylphenyl)-N-(2,2,2-trifluoroethyl)-4H-1,2,4-triazole-3-carboxamide], the IC50 at HSP90a protein and at KRAS(G12C) was under 100 nM each time. In test [1], this molecule had an EC50 of under 100 nM.
`C=CC(=O)N1CCN(c2nc(OCCN3CCC4(CC3)CCN(C(=O)C3CCN(Cc5ccc(-n6c(C(N)=O)nnc6-c6cc(C(C)C)c(O)cc6O)cc5)CC3)CC4)nc3c2CCN(c2cccc4cccc(Cl)c24)C3)C[C@@H]1CC#N` [Compound 210, (S)-4-(4-((4-(9-(2-((4-(4-acryloyl-3-(cyanomethyl)piperazin-1-yl)-7-(8-chloronaphthalen-1-yl)-5,6,7,8-tetrahydropyrido[3,4-d]pyrimidin-2-yl)oxy)ethyl)-3,9-diazaspiro[5.5]undecane-3-carbonyl)piperidin-1-yl)methyl)phenyl)-5-(2,4-dihydroxy-5-isopropylphenyl)-4H-1,2,4-triazole-3-carboxamide]: the IC50 on HSP90a protein and at KRAS(G12C) was under 100 nM each time. In test [1], this molecule came in with an EC50 of under 100 nM.
On to `C=CC(=O)N1CCN(c2nc(OCCN3CCC(C(=O)N4CCC(Cc5ccc(-n6c(O)nnc6-c6cc(C(C)C)c(O)cc6O)cc5)CC4)CC3)nc3c2CCN(c2cccc4cccc(Cl)c24)C3)C[C@@H]1CC#N` [Compound 211, (S)-2-(1-acryloyl-4-(7-(8-chloronaphthalen-1-yl)-2-(2-(4-(4-(4-(3-(2,4-dihydroxy-5-isopropylphenyl)-5-hydroxy-4H-1,2,4-triazol-4-yl)benzyl)piperidine-1-carbonyl)piperidin-1-yl)ethoxy)-5,6,7,8-tetrahydropyrido[3,4-d]pyrimidin-4-yl)piperazin-2-yl)acetonitrile], for which the IC50 at HSP90a protein is under 100 nM; at KRAS(G12C), 100 to 1000 nM. Further, in test [1], the EC50 was over 1000 nM.
For `C=CC(=O)N1CCN(c2nc(OCCN3CCC(C(=O)N4CCC(Cc5ccc(-n6c(C(=O)NCC(F)(F)F)nnc6-c6cc(C(C)C)c(O)cc6O)cc5)CC4)CC3)nc3c2CCN(c2cccc4cccc(Cl)c24)C3)C[C@@H]1CC#N` [Compound 212, (S)-4-(4-((1-(1-(2-((4-(4-acryloyl-3-(cyanomethyl)piperazin-1-yl)-7-(8-chloronaphthalen-1-yl)-5,6,7,8-tetrahydropyrido[3,4-d]pyrimidin-2-yl)oxy)ethyl)piperidine-4-carbonyl)piperidin-4-yl)methyl)phenyl)-5-(2,4-dihydroxy-5-isopropylphenyl)-N-(2,2,2-trifluoroethyl)-4H-1,2,4-triazole-3-carboxamide] the same measures were under 100 nM, 100 to 1000 nM and 100 to 1000 nM.
In the case of `C=CC(=O)N1CCN(c2nc(OC[C@@H]3C[C@H](NC(=O)C4CCN(Cc5ccc(-n6c(O)nnc6-c6cc(C(C)C)c(O)cc6O)cc5)CC4)CN3C)nc3c2CCN(c2cccc4cccc(Cl)c24)C3)C[C@@H]1CC#N` [Compound 214, N-((3S,5S)-5-(((4-((S)-4-acryloyl-3-(cyanomethyl)piperazin-1-yl)-7-(8-chloronaphthalen-1-yl)-5,6,7,8-tetrahydropyrido[3,4-d]pyrimidin-2-yl)oxy)methyl)-1-methylpyrrolidin-3-yl)-1-(4-(3-(2,4-dihydroxy-5-isopropylphenyl)-5-hydroxy-4H-1,2,4-triazol-4-yl)benzyl)piperidine-4-carboxamide], the IC50 at HSP90a protein and at KRAS(G12C) was under 100 nM each time. Besides, the EC50 in test [1] lay within 100 to 1000 nM.
In the case of `C=CC(=O)N1CCN(c2nc(OC[C@@H]3C[C@@H](NCc4ccc(-n5c(O)nnc5-c5cc(C(C)C)c(O)cc5O)cc4)CN3C)nc3c2CCN(c2cccc4cccc(Cl)c24)C3)C[C@@H]1CC#N` [Compound 215, 2-((S)-1-acryloyl-4-(7-(8-chloronaphthalen-1-yl)-2-(((2S,4R)-4-((4-(3-(2,4-dihydroxy-5-isopropylphenyl)-5-hydroxy-4H-1,2,4-triazol-4-yl)benzyl)amino)-1-methylpyrrolidin-2-yl)methoxy)-5,6,7,8-tetrahydropyrido[3,4-d]pyrimidin-4-yl)piperazin-2-yl)acetonitrile], the results for the IC50 on HSP90a protein and on KRAS(G12C) were under 100 nM and 100 to 1000 nM, respectively. In test [1], this molecule showed an EC50 of 100 to 1000 nM.

For orientation: EC50 means the concentration at which the effect is half-maximal.
